From patent US9637469B2, “Pyridine derivative” (Teijin Pharma Limited, priority 2012, dated 2017)

Target: T1, human URAT1 (Homo sapiens, UniProt Q96S37)
T1 construct: Full-length cDNA of human URAT1 (hURAT1)
T1 sequence (Q96S37 1-553): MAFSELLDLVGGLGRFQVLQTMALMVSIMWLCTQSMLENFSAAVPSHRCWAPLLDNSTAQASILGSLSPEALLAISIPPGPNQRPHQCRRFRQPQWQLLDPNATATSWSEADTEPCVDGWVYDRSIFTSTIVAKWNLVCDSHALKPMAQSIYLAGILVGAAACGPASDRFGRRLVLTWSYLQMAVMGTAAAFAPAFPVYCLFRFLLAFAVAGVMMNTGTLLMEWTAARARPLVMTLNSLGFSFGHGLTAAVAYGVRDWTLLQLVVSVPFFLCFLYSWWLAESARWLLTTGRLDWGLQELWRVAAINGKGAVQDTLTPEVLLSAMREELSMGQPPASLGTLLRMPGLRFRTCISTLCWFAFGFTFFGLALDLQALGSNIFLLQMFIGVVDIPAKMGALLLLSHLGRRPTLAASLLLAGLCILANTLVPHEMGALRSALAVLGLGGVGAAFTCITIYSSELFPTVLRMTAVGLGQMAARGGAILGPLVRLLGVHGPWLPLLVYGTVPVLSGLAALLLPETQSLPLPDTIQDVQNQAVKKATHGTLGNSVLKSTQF
Assay: Test for inhibition of uric acid transport using human URAT1-expressing cells;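 further: three stars up to 0.2 µM two stars 0.2-2 µM one star 2-20 µM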
Format: cell-based
Details: HEK 293 cells expressing human URAT1, 14C-labeled uric acid 25 μM, uptake 37° C. for 5 min; for IC50: read-out: Inhibitory Activity (IC50 of uric acid transport inhibition)
Method in brief: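 IC50 values reflect inhibition of ¹⁴C-uric acid uptake (25 μM final, 5 min, 37 °C) by compound. Cells were HEK293 stably expressing full-length human URAT1, preincubated in Na-gluconate-substituted HBSS. Radioactivity in lysates was expressed relative to DMSO control as 100%.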

## Cc1nc(Oc2cnccc2Br)n(Cc2cc(Cl)ccc2Cl)c1C(=O)O [Compound A258, 2-((4-bromopyridin-3-yl)oxy)-1-(2,5-dichlorobenzyl)-4-methyl-1H-imidazole-5-carboxylic acid]
  Inhibitory Activity (IC50 of uric acid transport inhibition): * * *

## O=C(O)/C=C/c1cnc(-c2cccnc2)n1Cc1cccc2ccccc12 [Compound A259]
  IC50: 2 to 20 µM

## O=C(O)/C=C/c1cnc(-c2cccnc2)n1Cc1cc(Cl)ccc1Cl [Compound A260]
  IC50: 2 to 20 µM

## CC(C)(Sc1cnc(-c2cccnc2)n1Cc1cc(Cl)ccc1Cl)C(=O)O [Compound A261]
  IC50: 2 to 20 µM

## CC(C)(Sc1cnc(-c2cncc(Cl)c2)n1Cc1cc(Cl)ccc1Cl)C(=O)O [Compound A262, 2-((2-(5-chloropyridin-3-yl)-1-(2,5-dichlorobenzyl)-1H-imidazol-5-yl)thio)-2-methylpropanoic acid]
  Inhibitory Activity (IC50 of uric acid transport inhibition): * *

## O=C(O)C1(Sc2cnc(-c3cncc(Cl)c3)n2Cc2cc(Cl)ccc2Cl)CCC1 [Compound A263, 1-((2-(5-chloropyridin-3-yl)-1-(2,5-dichlorobenzyl)-1H-imidazol-5-yl)thio)cyclobutanecarboxylic acid]
  Inhibitory Activity (IC50 of uric acid transport inhibition): * *

## CC(C)(Sc1ncc(-c2cccnc2)n1Cc1cc(Cl)ccc1Cl)C(=O)O [Compound A264]
  IC50: 2 to 20 µM

## CC(C)(Sc1ncc(-c2cncc(F)c2)n1Cc1cc(Cl)ccc1Cl)C(=O)O [Compound A265]
  IC50: 2 to 20 µM

## CC(C)(Sc1ncc(-c2cncc(Cl)c2)n1Cc1cc(Cl)ccc1Cl)C(=O)O [Compound A266, 2-((5-(5-chloropyridin-3-yl)-1-(2,5-dichlorobenzyl)-1H-imidazol-2-yl)thio)-2-methylpropanoic acid]
  Inhibitory Activity (IC50 of uric acid transport inhibition): * *

## Cc1ccc(Cn2c(C(=O)O)ccc2-c2cccnc2)c2ccccc12 [Compound B2, 1-((4-methylnaphthalen-1-yl)methyl)-2-(pyridin-3-yl)-1H-pyrrole-5-carboxylic acid]
  Inhibitory Activity (IC50 of uric acid transport inhibition): * * *

## O=C(O)c1ccc(-c2cccnc2)n1Cc1csc2cccc(Br)c12 [Compound B3, 1-((4-bromobenzo[b]thiophen-3-yl)methyl)-2-(pyridin-3-yl)-1H-pyrrole-5-carboxylic acid]
  Inhibitory Activity (IC50 of uric acid transport inhibition): * * *

## Cc1ccc2ccccc2c1Cn1c(C(=O)O)ccc1-c1cccnc1 [Compound B4, 1-((2-methylnaphthalen-1-yl)methyl)-2-(pyridin-3-yl)-1H-pyrrole-5-carboxylic acid]
  Inhibitory Activity (IC50 of uric acid transport inhibition): * *

## O=C(O)c1ccc(-c2cccnc2)n1Cc1cccc2cccc(Br)c12 [Compound B6, 1-((8-bromonaphthalen-1-yl)methyl)-2-(pyridin-3-yl)-1H-pyrrole-5-carboxylic acid]
  Inhibitory Activity (IC50 of uric acid transport inhibition): * * *

## Cc1cccc2scc(Cn3c(C(=O)O)ccc3-c3cccnc3)c12 [Compound B7, 1-((4-methylbenzo[b]thiophen-3-yl)methyl)-2-(pyridin-3-yl)-1H-pyrrole-5-carboxylic acid]
  Inhibitory Activity (IC50 of uric acid transport inhibition): * * *

## O=C(O)c1ccc(-c2cccnc2)n1Cc1csc2ccccc12 [Compound B8, 1-(benzo[b]thiophen-3-ylmethyl)-2-(pyridin-3-yl)-1H-pyrrole-5-carboxylic acid]
  Inhibitory Activity (IC50 of uric acid transport inhibition): * * *

## O=C(O)c1ccc(-c2cccnc2)n1Cc1csc2cccc(C(F)(F)F)c12 [Compound B9, 2-(pyridin-3-yl)-1-((4-(trifluoromethyl)benzo[b]thiophen-3-yl)methyl)-1H-pyrrole-5-carboxylic acid]
  Inhibitory Activity (IC50 of uric acid transport inhibition): * * *

## O=C(O)c1ccc(-c2cccnc2)n1Cc1csc2cccc(Cl)c12 [Compound B10, 1-((4-chlorobenzo[b]thiophen-3-yl)methyl)-2-(pyridin-3-yl)-1H-pyrrole-5-carboxylic acid]
  Inhibitory Activity (IC50 of uric acid transport inhibition): * * *

## Cc1ccc(C)c(Cn2c(C(=O)O)ccc2-c2cccnc2)c1 [Compound B12, 1-(2,5-dimethylbenzyl)-2-(pyridin-3-yl)-1H-pyrrole-5-carboxylic acid]
  Inhibitory Activity (IC50 of uric acid transport inhibition): * * *

## Cc1cncc(-c2ccc(C(=O)O)n2Cc2cc(Cl)ccc2Cl)c1 [Compound B13, 1-(2,5-dichlorobenzyl)-2-(5-methylpyridin-3-yl)-1H-pyrrole-5-carboxylic acid]
  Inhibitory Activity (IC50 of uric acid transport inhibition): * * *

## O=C(O)c1ccc(-c2cncc(F)c2)n1Cc1cc(Cl)ccc1Cl [Compound B14, 1-(2,5-dichlorobenzyl)-2-(5-fluoropyridin-3-yl)-1H-pyrrole-5-carboxylic acid]
  Inhibitory Activity (IC50 of uric acid transport inhibition): * * *

## Cc1cncc(-c2ccc(C(=O)O)n2Cc2csc3cccc(Cl)c23)c1 [Compound B15, 1-((4-chlorobenzo[b]thiophen-3-yl)methyl)-2-(5-methylpyridin-3-yl)-1H-pyrrole-5-carboxylic acid]
  Inhibitory Activity (IC50 of uric acid transport inhibition): * * *

## O=C(O)c1ccc(-c2cncc(F)c2)n1Cc1csc2cccc(Cl)c12 [Compound B16, 1-((4-chlorobenzo[b]thiophen-3-yl)methyl)-2-(5-fluoropyridin-3-yl)-1H-pyrrole-5-carboxylic acid]
  Inhibitory Activity (IC50 of uric acid transport inhibition): * * *

## O=C(O)c1ccc(-c2cncc(Cl)c2)n1Cc1cc(Cl)ccc1Cl [Compound B17, 2-(5-chloropyridin-3-yl)-1-(2,5-dichlorobenzyl)-1H-pyrrole-5-carboxylic acid]
  Inhibitory Activity (IC50 of uric acid transport inhibition): * * *

## O=C(O)c1ccc(-c2cncc(Cl)c2)n1Cc1csc2cccc(Cl)c12 [Compound B18, 1-((4-chlorobenzo[b]thiophen-3-yl)methyl)-2-(5-chloropyridin-3-yl)-1H-pyrrole-5-carboxylic acid]
  Inhibitory Activity (IC50 of uric acid transport inhibition): * * *

## O=C(O)c1ccc(-c2cccnc2)n1Cc1cccc2cccnc12 [Compound B19, 2-(pyridin-3-yl)-1-(quinolin-8-ylmethyl)-1H-pyrrole-5-carboxylic acid]
  Inhibitory Activity (IC50 of uric acid transport inhibition): * *

## O=C(O)c1ccc(-c2cccnc2)n1Cc1cccc2ccsc12 [Compound B20, 1-(benzo[b]thiophen-7-ylmethyl)-2-(pyridin-3-yl)-1H-pyrrole-5-carboxylic acid]
  Inhibitory Activity (IC50 of uric acid transport inhibition): * * *

## Cc1cncc(-c2ccc(C(=O)O)n2Cc2cccc3ccsc23)c1 [Compound B21, 1-(benzo[b]thiophen-7-ylmethyl)-2-(5-methylpyridin-3-yl)-1H-pyrrole-5-carboxylic acid]
  Inhibitory Activity (IC50 of uric acid transport inhibition): * * *

## O=C(O)c1ccc(-c2cncc(F)c2)n1Cc1cccc2ccsc12 [Compound B22, 1-(benzo[b]thiophen-7-ylmethyl)-2-(5-fluoropyridin-3-yl)-1H-pyrrole-5-carboxylic acid]
  Inhibitory Activity (IC50 of uric acid transport inhibition): * * *

## O=C(O)c1ccc(-c2cncc(Cl)c2)n1Cc1cccc2ccsc12 [Compound B23, 1-(benzo[b]thiophen-7-ylmethyl)-2-(5-chloropyridin-3-yl)-1H-pyrrole-5-carboxylic acid]
  Inhibitory Activity (IC50 of uric acid transport inhibition): * * *

## CS(=O)(=O)NC(=O)c1ccc(-c2cccnc2)n1Cc1cccc2ccccc12 [Compound B24, N-(methylsulfonyl)-1-(naphthalen-1-ylmethyl)-2-(pyridin-3-yl)-1H-pyrrole-5-carboxamide]
  Inhibitory Activity (IC50 of uric acid transport inhibition): * * *

## O=C(NS(=O)(=O)C1CC1)c1ccc(-c2cccnc2)n1Cc1cccc2ccccc12 [Compound B25, N-(cyclopropylsulfonyl)-1-(naphthalen-1-ylmethyl)-2-(pyridin-3-yl)-1H-pyrrole-5-carboxamide]
  Inhibitory Activity (IC50 of uric acid transport inhibition): * * *

## CS(=O)(=O)NC(=O)c1ccc(-c2cncc(F)c2)n1Cc1cc(Cl)ccc1Cl [Compound B26, 1-(2,5-dichlorobenzyl)-2-(5-fluoropyridin-3-yl)-N-(methylsulfonyl)-1H-pyrrole-5-carboxamide]
  Inhibitory Activity (IC50 of uric acid transport inhibition): * * *

## O=C(NS(=O)(=O)C1CC1)c1ccc(-c2cncc(F)c2)n1Cc1cc(Cl)ccc1Cl [Compound B27, N-(cyclopropylsulfonyl)-1-(2,5-dichlorobenzyl)-2-(5-fluoropyridin-3-yl)-1H-pyrrole-5-carboxamide]
  Inhibitory Activity (IC50 of uric acid transport inhibition): * * *

## CS(=O)(=O)NC(=O)c1ccc(-c2cccnc2)n1Cc1cc(Cl)ccc1Cl [Compound B28, 1-(2,5-dichlorobenzyl)-N-(methylsulfonyl)-2-(pyridin-3-yl)-1H-pyrrole-5-carboxamide]
  Inhibitory Activity (IC50 of uric acid transport inhibition): * * *

## CS(=O)(=O)NC(=O)c1ccc(-c2cncc(Cl)c2)n1Cc1cc(Cl)ccc1Cl [Compound B29, 2-(5-chloropyridin-3-yl)-1-(2,5-dichlorobenzyl)-N-(methylsulfonyl)-1H-pyrrole-5-carboxamide]
  Inhibitory Activity (IC50 of uric acid transport inhibition): * * *
